Reference: US20230346961A1, “GLP-1 AND GIP RECEPTOR CO-AGONISTS” (Novo Nordisk A/S, priority 2020, published 2023)
Starred links: 1 amine or outer side, 2 acyl side, 3 side chain; linkers in the order of their positions; H or OH if unused. Non-standard residues stand in square brackets, D forms with d. Residues, ends and D or L forms follow the SMILES beside them. Groups on a side chain read outwards from the residue. *: point of attachment. C20 diacid = O=C(O)CCCCCCCCCCCCCCCCCCC(=O)*; C18 diacid = O=C(O)CCCCCCCCCCCCCCCCC(=O)*; γGlu = O=C(O)[C@H](CCC(=O)[*:2])N[*:1]; εLys = N[C@@H](CCCCN[*:1])C(=O)[*:2]; Trx = NC[C@H]1CC[C@H](C(=O)O)CC1; AEEA = NCCOCCOCC(=O)O; Aib = CC(C)(N)C(=O)O

Legend:
[1] = target: T1, mouse GIP receptor (Mus musculus, UniProt Q0P543); test: cell-based
T1 sequence (Q0P543 19-460): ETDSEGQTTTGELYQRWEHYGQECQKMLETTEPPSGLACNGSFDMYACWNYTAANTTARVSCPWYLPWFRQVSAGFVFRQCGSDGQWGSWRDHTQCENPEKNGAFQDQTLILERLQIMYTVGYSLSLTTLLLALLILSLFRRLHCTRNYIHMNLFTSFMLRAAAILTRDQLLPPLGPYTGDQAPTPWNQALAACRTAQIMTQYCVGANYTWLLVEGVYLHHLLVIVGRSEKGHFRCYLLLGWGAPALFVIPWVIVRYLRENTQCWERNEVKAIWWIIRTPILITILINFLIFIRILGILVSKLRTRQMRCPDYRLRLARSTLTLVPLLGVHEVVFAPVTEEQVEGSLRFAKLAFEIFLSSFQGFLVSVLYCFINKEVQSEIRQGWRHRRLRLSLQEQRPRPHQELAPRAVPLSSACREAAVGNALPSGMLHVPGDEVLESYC

[2] = target: human GLP-1 receptor (Homo sapiens, UniProt P43220); test: cell-based; settings: hGLP-1R
[3] = target: T2, mouse GLP-1 receptor (Mus musculus, UniProt O35659)
T2 sequence (O35659 22-463): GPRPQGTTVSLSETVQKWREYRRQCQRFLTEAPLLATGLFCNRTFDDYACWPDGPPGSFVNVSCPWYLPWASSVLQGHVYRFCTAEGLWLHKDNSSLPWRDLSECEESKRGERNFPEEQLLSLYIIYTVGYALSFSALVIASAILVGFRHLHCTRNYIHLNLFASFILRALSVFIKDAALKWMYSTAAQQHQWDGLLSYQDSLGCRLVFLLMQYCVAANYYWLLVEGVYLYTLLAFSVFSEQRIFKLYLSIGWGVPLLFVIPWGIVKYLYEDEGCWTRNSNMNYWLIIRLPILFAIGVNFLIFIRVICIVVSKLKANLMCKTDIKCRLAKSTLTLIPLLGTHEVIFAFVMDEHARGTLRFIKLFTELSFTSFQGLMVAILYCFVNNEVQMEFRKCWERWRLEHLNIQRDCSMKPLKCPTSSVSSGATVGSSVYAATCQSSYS

human GLP-1 receptor, sequence (P43220 24-463): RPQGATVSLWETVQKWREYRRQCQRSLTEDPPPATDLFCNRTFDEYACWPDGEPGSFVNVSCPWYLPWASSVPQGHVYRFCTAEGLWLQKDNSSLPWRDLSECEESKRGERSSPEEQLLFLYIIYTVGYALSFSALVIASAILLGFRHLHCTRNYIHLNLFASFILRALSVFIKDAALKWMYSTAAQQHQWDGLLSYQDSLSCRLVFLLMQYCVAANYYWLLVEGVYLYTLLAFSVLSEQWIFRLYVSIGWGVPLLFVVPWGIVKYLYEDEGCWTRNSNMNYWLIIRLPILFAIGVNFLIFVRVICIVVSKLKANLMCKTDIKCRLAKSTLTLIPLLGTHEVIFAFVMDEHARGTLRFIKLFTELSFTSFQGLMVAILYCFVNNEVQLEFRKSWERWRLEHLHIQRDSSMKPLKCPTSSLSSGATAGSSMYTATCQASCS

SMILES	EC50 [1] [nM]	EC50 ([2]; CRE Luc 0% HSA EC50, 0% HSA) [nM]	EC50 ([2]; CRE Luc 1% HSA EC50, 1% HSA) [nM]	EC50 [3] [nM]
CC[C@H](C)[C@H](NC(=O)[C@H](CO)NC(=O)[C@H](Cc1ccc(O)cc1)NC(=O)[C@H](CC(=O)O)NC(=O)[C@H](CO)NC(=O)[C@@H](NC(=O)[C@H](Cc1ccccc1)NC(=O)[C@@H](NC(=O)CNC(=O)[C@H](CCC(=O)O)NC(=O)C(C)(C)NC(=O)[C@@H](N)Cc1ccc(O)cc1)[C@@H](C)O)[C@@H](C)O)C(=O)N[C@@H](Cc1ccc(O)cc1)C(=O)N[C@@H](CC(C)C)C(=O)N[C@@H](CCC(=O)O)C(=O)N[C@@H](CCCCN)C(=O)N[C@@H](CCC(N)=O)C(=O)N[C@@H](C)C(=O)N[C@@H](C)C(=O)NC(C)(C)C(=O)N[C@@H](CCCCNC(=O)[C@@H](N)CCCCNC(=O)[C@@H](N)CCCCNC(=O)CC[C@H](NC(=O)CCCCCCCCCCCCCCCCC(=O)O)C(=O)O)C(=O)N[C@@H](Cc1ccccc1)C(=O)N[C@H](C(=O)N[C@@H](CC(N)=O)C(=O)N[C@@H](Cc1c[nH]c2ccccc12)C(=O)N[C@@H](CC(C)C)C(=O)N[C@@H](CC(C)C)C(=O)N[C@@H](C)C(=O)NCC(=O)NCC(=O)N1CCC[C@H]1C(=O)N[C@@H](CO)C(=O)N[C@@H](CO)C(=O)NCC(=O)N[C@@H](C)C(=O)N1CCC[C@H]1C(=O)N1CCC[C@H]1C(=O)N1CCC[C@H]1C(=O)N[C@@H](CO)C(N)=O)C(C)C [Compound 15] (H-Y[Aib]EGTFTSDYSIYLEKQAA[Aib]K([εLys-εLys-γGlu-C18 diacid])FVNWLLAGGPSSGAPPPS-NH2; N-terminus assumed)	0.0273	0.0061	0.128	0.0017
CC[C@H](C)[C@H](NC(=O)[C@H](CO)NC(=O)[C@H](Cc1ccc(O)cc1)NC(=O)[C@H](CC(=O)O)NC(=O)[C@H](CO)NC(=O)[C@@H](NC(=O)[C@H](Cc1ccccc1)NC(=O)[C@@H](NC(=O)CNC(=O)[C@H](CCC(=O)O)NC(=O)C(C)(C)NC(=O)[C@@H](N)Cc1ccc(O)cc1)[C@@H](C)O)[C@@H](C)O)C(=O)N[C@@H](Cc1ccc(O)cc1)C(=O)N[C@@H](CC(C)C)C(=O)N[C@@H](CC(=O)O)C(=O)N[C@@H](CCCCN)C(=O)N[C@@H](CCCCNC(=O)COCCOCCNC(=O)COCCOCCNC(=O)CC[C@H](NC(=O)CCCCCCCCCCCCCCCCC(=O)O)C(=O)O)C(=O)N[C@@H](C)C(=O)N[C@@H](C)C(=O)NC(C)(C)C(=O)N[C@@H](CCC(=O)O)C(=O)N[C@@H](Cc1ccccc1)C(=O)N[C@H](C(=O)N[C@@H](CC(N)=O)C(=O)N[C@@H](Cc1c[nH]c2ccccc12)C(=O)N[C@@H](CC(C)C)C(=O)N[C@@H](CC(C)C)C(=O)N[C@@H](C)C(=O)NCC(=O)NCC(=O)N1CCC[C@H]1C(=O)N[C@@H](CO)C(=O)N[C@@H](CO)C(=O)NCC(=O)N[C@@H](C)C(=O)N1CCC[C@H]1C(=O)N1CCC[C@H]1C(=O)N1CCC[C@H]1C(=O)N[C@@H](CO)C(N)=O)C(C)C [Compound 4] (H-Y[Aib]EGTFTSDYSIYLDKK([AEEA-AEEA-γGlu-C18 diacid])AA[Aib]EFVNWLLAGGPSSGAPPPS-NH2; N-terminus assumed)	1.55	0.0106	0.232	0.0039
CC[C@H](C)[C@H](NC(=O)[C@H](CO)NC(=O)[C@H](Cc1ccc(O)cc1)NC(=O)[C@H](CC(=O)O)NC(=O)[C@H](CO)NC(=O)[C@@H](NC(=O)[C@H](Cc1ccccc1)NC(=O)[C@@H](NC(=O)CNC(=O)[C@H](CCC(=O)O)NC(=O)C(C)(C)NC(=O)[C@@H](N)Cc1ccc(O)cc1)[C@@H](C)O)[C@@H](C)O)C(=O)N[C@@H](Cc1ccc(O)cc1)C(=O)N[C@@H](CC(C)C)C(=O)N[C@@H](CCC(=O)O)C(=O)N[C@@H](CCC(=O)O)C(=O)N[C@@H](CCC(N)=O)C(=O)N[C@@H](C)C(=O)N[C@@H](C)C(=O)NC(C)(C)C(=O)N[C@@H](CCCCNC(=O)COCCOCCNC(=O)COCCOCCNC(=O)CC[C@H](NC(=O)[C@H]1CC[C@H](CNC(=O)CCCCCCCCCCCCCCCCCCC(=O)O)CC1)C(=O)O)C(=O)N[C@@H](Cc1ccccc1)C(=O)N[C@H](C(=O)N[C@@H](CC(N)=O)C(=O)N[C@@H](Cc1c[nH]c2ccccc12)C(=O)N[C@@H](CC(C)C)C(=O)N[C@@H](CC(C)C)C(=O)N[C@@H](C)C(=O)NCC(=O)NCC(=O)N1CCC[C@H]1C(=O)N[C@@H](CO)C(=O)N[C@@H](CO)C(=O)NCC(=O)N[C@@H](C)C(=O)N1CCC[C@H]1C(=O)N1CCC[C@H]1C(=O)N1CCC[C@H]1C(=O)N[C@@H](CO)C(N)=O)C(C)C [Compound 25] (H-Y[Aib]EGTFTSDYSIYLEEQAA[Aib]K([AEEA-AEEA-γGlu-Trx-C20 diacid])FVNWLLAGGPSSGAPPPS-NH2; N-terminus assumed)	0.34	0.0048	0.602	0.0029
CC[C@H](C)[C@H](NC(=O)[C@H](CO)NC(=O)[C@H](Cc1ccc(O)cc1)NC(=O)[C@H](CC(=O)O)NC(=O)[C@H](CO)NC(=O)[C@@H](NC(=O)[C@H](Cc1ccccc1)NC(=O)[C@@H](NC(=O)CNC(=O)[C@H](CCC(=O)O)NC(=O)C(C)(C)NC(=O)[C@@H](N)Cc1ccc(O)cc1)[C@@H](C)O)[C@@H](C)O)C(=O)N[C@@H](Cc1ccc(O)cc1)C(=O)N[C@@H](CC(C)C)C(=O)N[C@@H](CCC(=O)O)C(=O)N[C@@H](CCCCN)C(=O)N[C@@H](CCCCNC(=O)COCCOCCNC(=O)COCCOCCNC(=O)CC[C@H](NC(=O)CCCCCCCCCCCCCCCCCCC(=O)O)C(=O)O)C(=O)N[C@@H](C)C(=O)N[C@@H](C)C(=O)NC(C)(C)C(=O)N[C@@H](CCC(=O)O)C(=O)N[C@@H](Cc1ccccc1)C(=O)N[C@H](C(=O)N[C@@H](CC(N)=O)C(=O)N[C@@H](Cc1c[nH]c2ccccc12)C(=O)N[C@@H](CC(C)C)C(=O)N[C@@H](CC(C)C)C(=O)N[C@@H](C)C(=O)NCC(=O)NCC(=O)N1CCC[C@H]1C(=O)N[C@@H](CO)C(=O)N[C@@H](CO)C(=O)NCC(=O)N[C@@H](C)C(=O)N1CCC[C@H]1C(=O)N1CCC[C@H]1C(=O)N1CCC[C@H]1C(=O)N[C@@H](CO)C(N)=O)C(C)C [Compound 30] (H-Y[Aib]EGTFTSDYSIYLEKK([AEEA-AEEA-γGlu-C20 diacid])AA[Aib]EFVNWLLAGGPSSGAPPPS-NH2; N-terminus assumed)	0.201	0.0084	0.353	0.0019
CC[C@H](C)[C@H](NC(=O)[C@H](CO)NC(=O)[C@H](Cc1ccc(O)cc1)NC(=O)[C@H](CC(=O)O)NC(=O)[C@H](CO)NC(=O)[C@@H](NC(=O)[C@H](Cc1ccccc1)NC(=O)[C@@H](NC(=O)CNC(=O)[C@H](CCC(=O)O)NC(=O)C(C)(C)NC(=O)[C@@H](N)Cc1ccc(O)cc1)[C@@H](C)O)[C@@H](C)O)C(=O)N[C@@H](Cc1ccc(O)cc1)C(=O)N[C@@H](CC(C)C)C(=O)N[C@@H](CCC(=O)O)C(=O)N[C@@H](CCC(=O)O)C(=O)N[C@@H](CCC(N)=O)C(=O)N[C@@H](C)C(=O)N[C@@H](C)C(=O)NC(C)(C)C(=O)N[C@@H](CCCCNC(=O)COCCOCCNC(=O)COCCOCCNC(=O)CC[C@H](NC(=O)CCCCCCCCCCCCCCCCCCC(=O)O)C(=O)O)C(=O)N[C@@H](Cc1ccccc1)C(=O)N[C@H](C(=O)N[C@@H](CC(N)=O)C(=O)N[C@@H](Cc1c[nH]c2ccccc12)C(=O)N[C@@H](CC(C)C)C(=O)N[C@@H](CC(C)C)C(=O)N[C@@H](C)C(=O)NCC(=O)NCC(=O)N1CCC[C@H]1C(=O)N[C@@H](CO)C(=O)N[C@@H](CO)C(=O)NCC(=O)N[C@@H](C)C(=O)N1CCC[C@H]1C(=O)N1CCC[C@H]1C(=O)N1CCC[C@H]1C(=O)N[C@@H](CO)C(N)=O)C(C)C [Compound 26] (H-Y[Aib]EGTFTSDYSIYLEEQAA[Aib]K([AEEA-AEEA-γGlu-C20 diacid])FVNWLLAGGPSSGAPPPS-NH2; N-terminus assumed)	0.776	0.0047	0.37	0.0028
